The test system of one assay is OVCAR-5, SHIN-3, OVCAR-8. Kind of assay: MTT cell viability, ovarian cancer cell lines. It counts as cell-based, human. Conditions: 48 hr. How it is done:
FIG. 7. Dose-response curves for cell viability of human ovarian cancer cell lines OVCAR-5 (triangles), SHIN-3 (squares), and OVCAR-8 (lozenges) exposed to de-ethylflavopereirine. Cells were cultured in the presence of increasing concentrations of the compound for 48 hr and cell viability was determined by MTT assay. MRC-5 (crosses), an immortalized, normal human […] cell line, was used as a control.
De-ethylflavopereirine was tested for its activity against ovarian, pancreatic, brain, and colon cancer cell lines. […] Cytotoxicity is assayed by reducing a yellow tetrazolium dye, 3-(4,5-dimethylthiazol-2-yl)-2,5-diphenyltetrazolium bromide (MTT), to insoluble purple formazan. The MTT assay is a colorimetric assay for determining the number of viable cells.

For another assay, the system named is AM-38. Kind of assay: Glioblastoma cell viability and proliferation assay (ATP), AM-38. It counts as cell-based. The settings on record: AM38, 72 hr. As for the experimental part: FIG. 9. Glioblastoma in vitro cell viability and proliferation assay after treatment with de-ethylflavopereirine. Glioblastoma cell lines U-87MG, DBTRG-05MG, A172, and AM-38 were tested. Temozolomide, an oral chemotherapy drug known to treat some brain cancers, was used as a control. The concentrations of temozolomide (circles) or compound 13-9-1 (squares) used were 3 nM, 10 nM, 30 nM, 100 nM, 1 uM, 3 uM, 10 uM, and 30 uM. Each of the cell lines was treated with de-ethylflavopereirine for 72 hr before measuring cytotoxicity and inhibition of cell proliferation. Number of viable cells in culture based on quantitation of ATP. IC50 was determined as indicated below each graph.
The dose-response curves for the anti-brain cancer drug temozolomide are shown for comparison.

In another assay the test system is HT-29. As to the kind of experiment: Viability of bioluminescent HT-29 colon cancer cells. It counts as cell-based, human. The settings on record: HT-29, luminescence. The source says:
FIG. 10. Dose-response curve for human colon cancer cell line HT-29 exposed to either de-ethylflavopereirine (squares) or Pao pereira plant extract (triangles) containing flavopereirine and at least one other anti-cancer compound, dihydroflavopereirine. The bioluminescent HT-29 cell line was used.
A bioluminescent line was used enabling viability to be assessed by luminescence. In this case, the activity of compound 13-9-1 was compared with a Pao pereira extract containing flavopereirine and at least one other anti-cancer compound.

In another assay the test system is β-catenin. As to the kind of experiment: β-catenin localization in PANC-1 cells (Wnt signaling). It counts as cell-based. The source says:
FIG. 28. Effect of de-ethylflavopereirine on β-catenin localization in the nucleus of PANC-1 cells. […] Cytoplasmic β-catenin levels were not affected under these conditions. Vinculin provided a marker for a cytoplasmic protein that is present in very low amounts in the nucleus.
Wnt pathway activation involves translocation of β-catenin from the cytoplasm into the nucleus and subsequent changes in transcription of targeted genes. Suppression of Wnt activation occurs when the translocation of β-catenin into the nucleus is suppressed. […] So de-ethylflavopereirine inhibits the growth of pancreatic cancer stem cells in part because it specifically suppresses Wnt signaling.

For `c1ccc2c(c1)[nH]c1c2cc[n+]2ccccc12` [Compound 13-9-1, 12H-indolo[2,3-a]quinolizin-5-ium], in the assay on OVCAR-5, SHIN-3, OVCAR-8, the cell viability result is given as “dose-dependent decrease in cancer cell viability”. Moreover, in the assay on AM-38, the “IC50 relative to IC50 of temozolomide” value amounted to 0.66 times. In the assay on HT-29, the “activity compared with Pao pereira extract” value was “active at much lower concentrations than the plant extract”. In addition, the “cytoplasmic β-catenin levels” value with β-catenin (24 and 48 hr) is listed as “not affected”. In addition, the “β-catenin levels in the nucleus” value is “no effect” in the assay with β-catenin (24 hr post-treatment) and “significantly reduced” with β-catenin (48 hr post-treatment).

Values taken from US11083714B2, “Selective anti-cancer agent effective for prevention and treatment” (Molecular International Research, Inc., priority 2018, dated 2021).
